According to paper PMC3483245, “Optimization of a direct spectrophotometric method to investigate the kinetics and inhibition of sialidases” (BMC Biochemistry, 2012):
Entries after “also recorded” stand apart in the source; their conditions may differ.

Experiments:
pneumococcal sialidases = test system: pneumococcal sialidases; design: method as in PMID 18835278; settings: buffer substance; cited from earlier work
NanA [1] = molecular target: T1, NanA (Streptococcus pneumoniae, UniProt P62576); experiment: biochemical; type: biochemical; settings: for inhibition of NanA (in words): modified direct method
NanC [2] = molecular target: T2, NanC (Streptococcus pneumoniae, UniProt A0A0H2UQE4); experiment: biochemical
NanB [3] = molecular target: T3, NanB (Streptococcus pneumoniae serotype 4, UniProt Q54727); experiment: biochemical
NanC [4] = molecular target: T2, NanC; experiment: Hydrolysis of p-NP-Neu5Ac by NanC, direct spectrophotometric method; type: biochemical; settings: 30°C, 20 mM MES pH 6.0, 400 nm
NanA [5] = molecular target: T1, NanA; experiment: Hydrolysis of p-NP-Neu5Ac by NanA, direct spectrophotometric method; type: biochemical; settings: 30°C, 20 mM MES pH 6.0, 400 nm
NanB [6] = molecular target: T3, NanB; experiment: Hydrolysis of p-NP-Neu5Ac by NanB, conventional indirect spectrophotometric method; type: biochemical; settings: 37°C, stopped with 0.5 M Na2CO3 pH 9.0, 405 nm
Procedure: (§1) The activity of the sialidases was assayed colorimetrically and fluorometrically using the substrates p-NP-Neu5Ac (Sigma, St. Louis, Miss) and 4MU-Neu5Ac (Sigma, St- Louis, Miss), respectively. Conventional indirect assays were performed as previously described. Briefly, the reaction mixtures containing the substrates and up to 100 nM sialidase were incubated at 37°C and stopped by the addition of 0.5 M Na2CO3 pH 9.0 for the colorimetric assay or 0.25 M glycine pH 10.0 for the fluorimetric assay. Released p-NP was detected spectrophometrically at 405 nm. The fluorescence associated with the release of 4-MU was measured at the excitation wavelength of 365 nm and an emission wavelength of 445 nm. These measurements were performed using an EnVision microplate reader (Perkin Elmer, Waltham, Mass.).

NanB [7] = settings: direct method, 30°C, 20 mM MES pH 6.0, 400 nm
NanA [8] = molecular target: T1, NanA; experiment: Hydrolysis of p-NP-Neu5Ac by NanA, conventional indirect spectrophotometric method; type: biochemical; settings: 37°C, stopped with 0.5 M Na2CO3 pH 9.0, 405 nm
Procedure: as §1

NanC [9] = molecular target: T2, NanC; experiment: Hydrolysis of p-NP-Neu5Ac by NanC, conventional indirect spectrophotometric method; type: biochemical; settings: 37°C, stopped with 0.5 M Na2CO3 pH 9.0, 405 nm
Procedure: as §1

[10] = first order kinetics up to 500 μM substrate
[11] = first order kinetics up to 1,200 μM substrate

T3 sequence (Q54727 30-697): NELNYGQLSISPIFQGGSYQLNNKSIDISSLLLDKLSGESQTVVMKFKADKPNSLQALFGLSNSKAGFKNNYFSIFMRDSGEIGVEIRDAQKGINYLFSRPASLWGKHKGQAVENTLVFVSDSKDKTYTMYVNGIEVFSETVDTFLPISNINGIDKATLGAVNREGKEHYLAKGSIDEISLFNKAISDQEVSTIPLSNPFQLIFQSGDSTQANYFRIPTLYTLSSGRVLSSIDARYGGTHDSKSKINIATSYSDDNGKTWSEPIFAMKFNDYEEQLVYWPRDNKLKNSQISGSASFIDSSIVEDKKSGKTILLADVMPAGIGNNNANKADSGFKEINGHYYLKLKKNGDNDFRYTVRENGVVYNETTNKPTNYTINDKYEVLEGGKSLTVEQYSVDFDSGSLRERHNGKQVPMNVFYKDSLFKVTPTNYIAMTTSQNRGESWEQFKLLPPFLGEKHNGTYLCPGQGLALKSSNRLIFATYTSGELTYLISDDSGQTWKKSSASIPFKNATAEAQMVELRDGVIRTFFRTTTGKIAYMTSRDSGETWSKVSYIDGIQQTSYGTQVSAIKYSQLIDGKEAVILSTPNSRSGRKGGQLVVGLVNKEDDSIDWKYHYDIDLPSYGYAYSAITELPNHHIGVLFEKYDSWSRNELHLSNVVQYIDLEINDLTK
T1 sequence (P62576 54-1035): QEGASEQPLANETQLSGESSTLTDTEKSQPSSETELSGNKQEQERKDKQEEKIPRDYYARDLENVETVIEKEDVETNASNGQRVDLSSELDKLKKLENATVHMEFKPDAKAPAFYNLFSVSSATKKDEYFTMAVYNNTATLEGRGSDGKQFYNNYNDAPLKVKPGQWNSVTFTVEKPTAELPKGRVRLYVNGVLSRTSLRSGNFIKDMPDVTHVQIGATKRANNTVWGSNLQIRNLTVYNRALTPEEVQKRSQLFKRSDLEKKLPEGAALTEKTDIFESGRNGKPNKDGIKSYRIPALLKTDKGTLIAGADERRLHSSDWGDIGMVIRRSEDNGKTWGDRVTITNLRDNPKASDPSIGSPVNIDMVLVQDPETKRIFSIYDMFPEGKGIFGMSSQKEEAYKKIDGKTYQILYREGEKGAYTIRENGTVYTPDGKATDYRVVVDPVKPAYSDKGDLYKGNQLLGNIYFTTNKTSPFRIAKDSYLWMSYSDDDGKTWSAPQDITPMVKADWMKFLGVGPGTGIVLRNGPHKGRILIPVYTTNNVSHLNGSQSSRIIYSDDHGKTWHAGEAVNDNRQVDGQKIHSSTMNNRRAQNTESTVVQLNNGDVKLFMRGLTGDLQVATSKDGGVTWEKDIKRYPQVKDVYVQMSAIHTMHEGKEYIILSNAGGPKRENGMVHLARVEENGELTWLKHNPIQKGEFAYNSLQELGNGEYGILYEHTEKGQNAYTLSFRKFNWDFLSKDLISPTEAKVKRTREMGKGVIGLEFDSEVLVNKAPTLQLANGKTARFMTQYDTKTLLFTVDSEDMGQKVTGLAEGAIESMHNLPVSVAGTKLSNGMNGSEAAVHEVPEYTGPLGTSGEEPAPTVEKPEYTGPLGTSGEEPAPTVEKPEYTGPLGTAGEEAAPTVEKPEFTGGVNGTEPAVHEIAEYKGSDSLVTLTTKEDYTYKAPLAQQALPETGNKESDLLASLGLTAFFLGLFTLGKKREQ
T2 sequence (A0A0H2UQE4 entry or part of it): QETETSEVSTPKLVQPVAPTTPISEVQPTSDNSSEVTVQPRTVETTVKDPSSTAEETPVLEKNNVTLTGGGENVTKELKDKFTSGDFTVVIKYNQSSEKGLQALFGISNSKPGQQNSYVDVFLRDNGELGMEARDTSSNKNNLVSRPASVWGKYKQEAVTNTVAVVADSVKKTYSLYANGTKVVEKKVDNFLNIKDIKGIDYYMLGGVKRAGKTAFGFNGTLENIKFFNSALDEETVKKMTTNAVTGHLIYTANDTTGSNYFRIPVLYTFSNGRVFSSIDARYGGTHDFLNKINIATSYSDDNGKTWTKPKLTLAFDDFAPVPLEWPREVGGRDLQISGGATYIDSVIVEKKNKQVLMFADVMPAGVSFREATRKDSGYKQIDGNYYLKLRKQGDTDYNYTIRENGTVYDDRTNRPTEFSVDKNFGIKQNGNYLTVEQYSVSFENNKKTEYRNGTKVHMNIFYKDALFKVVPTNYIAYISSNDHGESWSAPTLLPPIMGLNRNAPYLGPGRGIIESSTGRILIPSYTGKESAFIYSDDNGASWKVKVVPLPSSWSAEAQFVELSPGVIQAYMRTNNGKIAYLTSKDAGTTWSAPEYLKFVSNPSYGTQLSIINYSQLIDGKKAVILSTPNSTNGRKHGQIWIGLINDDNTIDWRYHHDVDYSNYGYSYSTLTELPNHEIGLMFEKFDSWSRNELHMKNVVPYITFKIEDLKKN

O=S(=O)(O)CCNC1CCCCC1 [CHES, 2-n-cyclohexylamino ethane sulfonic acid]
inhibition of pneumococcal sialidases (in words) (pneumococcal sialidases): weak inhibitor

CC(=O)N[C@H]1[C@H]([C@H](O)[C@H](O)CO)OC(C(=O)O)=C[C@@H]1N=C(N)N [Zanamivir]
Ki (NanA [1]): 720 µM
inhibition of NanA (in words) (NanA [1]): Very limited inhibitory effects
Ki (NanC [2]): > 7.5 mM
Ki (NanB [3]): > 7.5 mM

CC(=O)N[C@H]1[C@H]([C@H](O)[C@H](O)CO)OC(Oc2ccc([N+](=O)[O-])cc2)(C(=O)O)C[C@@H]1O (some centres unmarked) [p-NP-Neu5Ac, 2-O-(p-nitrophenyl)-N-acetylneuraminic acid]
k cat / K m (NanC [4]): (3.4 ± 0.3) × 10^4 M^-1·s^-1
K m (NanC [4]; [10]): > 500 µM
k cat (NanC [4]; [10]): >17 s⁻¹
k cat / K m (NanA [5]): (3.5 ± 0.3) × 10^5 M^-1·s^-1
K m (NanA [5]; [10]): >500 µM
k cat (NanA [5]; [10]): >175 s⁻¹
k cat / K m (NanB [6]): (1.1 ± 0.1) × 10^2 M^-1·s^-1
K m (NanB [6]; [11]): >1,200 μM
k cat (NanB [6]; [11]): >11 s⁻¹
k cat / K m (NanB [7]): (2.7 ± 0.3) × 10^2 M^-1·s^-1
K m (NanB [7]; [10]): >500 µM
k cat (NanB [7]; [10]): >0.14 s⁻¹
k cat / K m (NanA [8]): (8.4 ± 0.9) × 10^4 M^-1·s^-1
K m (NanA [8]; [11]): >1,100 μM
k cat (NanA [8]; [11]): >490 s⁻¹
k cat / K m (NanC [9]): (1.2 ± 0.1) × 10^4 M^-1·s^-1
K m (NanC [9]; [11]): > 700 µM
k cat (NanC [9]; [11]): >11 s⁻¹

CC(=O)N[C@H]1[C@H]([C@H](O)[C@H](O)CO)OC(C(=O)O)=C[C@@H]1O [Neu5Ac2en, 2-deoxy-2,3-didehydro-N-acetylneuraminic acid]
inhibition of NanA (in words) (NanA [1]): significant inhibition; also recorded: inhibition constants in the micromolar range
Ki (NanC [2]): 2.01 mM

CCC(CC)O[C@@H]1C=C(C(=O)O)C[C@H](N)[C@H]1NC(C)=O [Oseltamivir carboxylate]
Ki (NanA [1]): 1.77 µM
inhibition of NanA (in words) (NanA [1]): significant inhibition; also recorded: inhibition constants in the micromolar range
Ki (NanC [2]): > 7.5 mM
Ki (NanB [3]): > 7.5 mM
